One molecule from US20080234304A1, “N3-Pyridyl-Thiamine And Its Use In Cancer Treatments” (AVEO PHARMACEUTICALS, INC., priority 2004, published 2008) can be followed below.

Test [1] addresses T1, alpha-ketoglutarate dehydrogenase (kGDH) (Homo sapiens, UniProt Q02218).
T1 construct: endogenous in cells
T1 sequence (Q02218 41-1023): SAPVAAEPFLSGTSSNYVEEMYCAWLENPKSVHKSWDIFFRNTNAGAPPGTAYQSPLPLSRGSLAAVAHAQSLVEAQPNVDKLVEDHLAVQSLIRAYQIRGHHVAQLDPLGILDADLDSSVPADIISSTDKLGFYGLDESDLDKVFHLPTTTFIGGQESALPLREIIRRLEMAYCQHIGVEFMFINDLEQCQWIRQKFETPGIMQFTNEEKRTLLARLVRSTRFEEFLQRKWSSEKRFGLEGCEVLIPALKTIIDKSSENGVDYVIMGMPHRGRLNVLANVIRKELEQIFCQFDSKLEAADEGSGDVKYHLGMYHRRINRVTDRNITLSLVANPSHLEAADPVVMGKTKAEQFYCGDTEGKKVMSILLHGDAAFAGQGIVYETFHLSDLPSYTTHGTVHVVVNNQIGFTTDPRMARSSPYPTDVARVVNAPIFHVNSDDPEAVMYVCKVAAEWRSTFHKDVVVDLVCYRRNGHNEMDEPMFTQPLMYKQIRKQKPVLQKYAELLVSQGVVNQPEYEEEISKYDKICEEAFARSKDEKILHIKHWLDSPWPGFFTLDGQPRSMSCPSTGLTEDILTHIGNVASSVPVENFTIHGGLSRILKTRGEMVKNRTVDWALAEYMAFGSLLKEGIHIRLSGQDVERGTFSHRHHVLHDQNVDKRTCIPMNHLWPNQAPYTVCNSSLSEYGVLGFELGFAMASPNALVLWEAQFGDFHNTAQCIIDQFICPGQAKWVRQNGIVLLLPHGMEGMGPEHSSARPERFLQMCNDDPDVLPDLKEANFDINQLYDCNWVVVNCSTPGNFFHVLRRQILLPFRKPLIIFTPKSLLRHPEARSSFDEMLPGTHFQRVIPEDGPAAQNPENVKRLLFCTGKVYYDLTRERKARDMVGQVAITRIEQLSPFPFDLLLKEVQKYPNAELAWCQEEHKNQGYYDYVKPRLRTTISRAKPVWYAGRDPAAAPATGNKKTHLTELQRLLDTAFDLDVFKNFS
T1 sequence (P36957 68-453 partner): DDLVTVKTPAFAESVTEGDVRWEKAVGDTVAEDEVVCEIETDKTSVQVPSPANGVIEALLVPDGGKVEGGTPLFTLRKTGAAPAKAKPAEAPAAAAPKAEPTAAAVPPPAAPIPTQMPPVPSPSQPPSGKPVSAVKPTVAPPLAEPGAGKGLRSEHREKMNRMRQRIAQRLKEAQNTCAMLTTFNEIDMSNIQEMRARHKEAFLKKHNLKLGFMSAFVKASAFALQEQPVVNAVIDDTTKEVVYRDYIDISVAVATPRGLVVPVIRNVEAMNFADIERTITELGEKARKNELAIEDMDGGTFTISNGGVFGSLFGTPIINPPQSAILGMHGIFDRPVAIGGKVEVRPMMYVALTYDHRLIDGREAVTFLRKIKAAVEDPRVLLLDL
T1 sequence (P09622 36-509 partner): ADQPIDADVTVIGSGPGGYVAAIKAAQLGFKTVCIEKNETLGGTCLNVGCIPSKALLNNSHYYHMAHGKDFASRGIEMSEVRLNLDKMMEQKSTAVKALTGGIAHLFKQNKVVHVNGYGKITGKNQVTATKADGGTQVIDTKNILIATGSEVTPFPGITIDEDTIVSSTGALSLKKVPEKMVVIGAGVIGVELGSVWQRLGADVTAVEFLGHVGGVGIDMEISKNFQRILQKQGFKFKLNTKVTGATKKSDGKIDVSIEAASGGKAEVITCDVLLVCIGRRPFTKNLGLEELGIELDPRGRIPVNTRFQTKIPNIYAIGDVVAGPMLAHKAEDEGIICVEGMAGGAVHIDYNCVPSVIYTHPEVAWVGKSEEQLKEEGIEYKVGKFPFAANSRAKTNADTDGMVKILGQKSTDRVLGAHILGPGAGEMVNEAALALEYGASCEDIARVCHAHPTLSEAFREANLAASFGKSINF
Put plainly: kGDH activity in extracts from cells incubated with N3PT. The format is cell-based. To be noted: extracts from cells incubated with increasing concentrations of N3PT; read-out: IC50 kGDH (selectivity comparison, FIG. 9). On the procedure:
TK, kGDH and PDH enzymes all utilize thiamine pyrophosphate (TPP) as a co-factor for their catalysis. Conventional cell culture media (e.g., DMEM, RPMI) have high levels of thiamine (12 μM and 3 μM, respectively). High thiamine levels will mask the inhibitory effect of N3PT. Thus, to measure the IC50 of N3PT, a thiamine depleted DMEM, containing all the ingredients of normal DMEM except for thiamine (HyClone, custom order), was used. Thiamine-depleted media (TDM) is made up with thiamine-depleted DMEM, 10% FBS, which contains low amounts of thiamine (estimated to be ˜3-5 nM) and 1% Penicillin-streptomycin.
Log-phase growing cells were trypsinized and resuspended in TDM. Twenty-four hours after seeding, 5 μl of 20× N3PT compound stock solution was added to the cells in 95 μl of TDM. After increasing times of N3PT treatment, cells were either subjected to enzymatic reactions directly or were frozen at −20° C. for future assays. […] TK activities could be measured from ≧5000 cells in most cell lines tested. […]
Enzymatic inhibition was expressed as percent of control cells that were not treated with compounds. […]

Another test has as its system HCT-116 Luc+ tumors. Put plainly: mouse xenograft model, tumor growth. To be noted: 200 mg/kg/day, twice daily, ip; Balb C nude mice. The format is in vivo. Here is the method: A mouse xenograft model was used to evaluate the efficacy of N3PT in modulating tumor growth. Cancer cells (HCT-116 Luc+, comprising a stably transfected luciferase gene) were injected subcutaneously (10^6 cells) into Balb C nude mice on both flanks on day 7 prior to treatment. Tumors were allowed to grow to palpable size from test day 0, defined as the start of a treatment regime. N3PT was injected ip (intraperitoneally) at a given regimen (e.g., 200 mg/kg/day) and tumor size monitored by luminance intensity from day 0-7, caliper measurement after day 7, and by weight at the end of study, after the animals were sacrificed. See, e.g., Wang and El-Deiry, Cancer Biol Ther. 2(2):196-202 (2003); Ray et al., Cancer Res. 63(6):1160-5 (2003); see also, e.g., U.S. Pat. Nos. 6,416,960; 6,596,257; and 6,217,847.

Molecules are shown by their SMILES. pIC50: −log10 of the molar value. Entries after “also recorded” stand apart in the source; their conditions may differ.

Regarding `Cc1ccc(C[n+]2csc(CCO)c2C)c(N)n1` [N3PT, 3-[(2-amino-6-methyl-3-pyridinyl)methyl]-5-(2-hydroxyethyl)-4-methyl thiazolium], in test [1], the negative logarithm of the IC50 (pIC50) was 7.07. The “growth of explant tumors” value in the test on HCT-116 Luc+ tumors is reported as “inhibits growth of tumors in vivo; also recorded: inhibited the growth of explant tumors”.
